Experiments:
ATR kinase = target: T1, ATR kinase (Homo sapiens, UniProt Q13535); experiment: ATR Inhibition Assay (radioactive-phosphate incorporation); type: biochemical; conditions: Ki(app); 5 nM full-length ATR, 10 μM ATP, 800 μM target peptide, 25° C.
T1 construct: Assays were carried out at 25° C. in the presence of 5 nM full-length ATR
Procedure, shortened: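 Full-length ATR (5 nM) in 50 mM Tris/HCl pH 7.5, 10 mM MgCl2, 1 mM DTT, with 800 μM peptide substrate and 10 μM [γ-33P]ATP at 25 °C. Compounds (from 15 μM final, 3-fold dilutions, 7% DMSO) were preincubated 10 min; the reaction was stopped at 24 h. 33P incorporation was captured on phosphocellulose; Ki(app) was from non-linear regression of initial rates.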

[1] = test system: HCT116 colorectal cancer cells; experiment: Cisplatin Sensitization Assay (96 h cell viability MTS); type: cell-based; conditions: concentration of compound required to reduce the IC50 of Cisplatin alone by at least 3-fold; HCT116, 96 h MTS
Procedure, shortened: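 HCT116 cells received compound and cisplatin together as a full matrix of 2-fold dilutions, each from a 10 μM top final concentration. After 96 h at 37 °C and 5% CO2, viability was read by MTS (1 h, A490). The value is the compound concentration that lowers the cisplatin IC50 at least 3-fold.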

T1 sequence (Q13535 whole entry): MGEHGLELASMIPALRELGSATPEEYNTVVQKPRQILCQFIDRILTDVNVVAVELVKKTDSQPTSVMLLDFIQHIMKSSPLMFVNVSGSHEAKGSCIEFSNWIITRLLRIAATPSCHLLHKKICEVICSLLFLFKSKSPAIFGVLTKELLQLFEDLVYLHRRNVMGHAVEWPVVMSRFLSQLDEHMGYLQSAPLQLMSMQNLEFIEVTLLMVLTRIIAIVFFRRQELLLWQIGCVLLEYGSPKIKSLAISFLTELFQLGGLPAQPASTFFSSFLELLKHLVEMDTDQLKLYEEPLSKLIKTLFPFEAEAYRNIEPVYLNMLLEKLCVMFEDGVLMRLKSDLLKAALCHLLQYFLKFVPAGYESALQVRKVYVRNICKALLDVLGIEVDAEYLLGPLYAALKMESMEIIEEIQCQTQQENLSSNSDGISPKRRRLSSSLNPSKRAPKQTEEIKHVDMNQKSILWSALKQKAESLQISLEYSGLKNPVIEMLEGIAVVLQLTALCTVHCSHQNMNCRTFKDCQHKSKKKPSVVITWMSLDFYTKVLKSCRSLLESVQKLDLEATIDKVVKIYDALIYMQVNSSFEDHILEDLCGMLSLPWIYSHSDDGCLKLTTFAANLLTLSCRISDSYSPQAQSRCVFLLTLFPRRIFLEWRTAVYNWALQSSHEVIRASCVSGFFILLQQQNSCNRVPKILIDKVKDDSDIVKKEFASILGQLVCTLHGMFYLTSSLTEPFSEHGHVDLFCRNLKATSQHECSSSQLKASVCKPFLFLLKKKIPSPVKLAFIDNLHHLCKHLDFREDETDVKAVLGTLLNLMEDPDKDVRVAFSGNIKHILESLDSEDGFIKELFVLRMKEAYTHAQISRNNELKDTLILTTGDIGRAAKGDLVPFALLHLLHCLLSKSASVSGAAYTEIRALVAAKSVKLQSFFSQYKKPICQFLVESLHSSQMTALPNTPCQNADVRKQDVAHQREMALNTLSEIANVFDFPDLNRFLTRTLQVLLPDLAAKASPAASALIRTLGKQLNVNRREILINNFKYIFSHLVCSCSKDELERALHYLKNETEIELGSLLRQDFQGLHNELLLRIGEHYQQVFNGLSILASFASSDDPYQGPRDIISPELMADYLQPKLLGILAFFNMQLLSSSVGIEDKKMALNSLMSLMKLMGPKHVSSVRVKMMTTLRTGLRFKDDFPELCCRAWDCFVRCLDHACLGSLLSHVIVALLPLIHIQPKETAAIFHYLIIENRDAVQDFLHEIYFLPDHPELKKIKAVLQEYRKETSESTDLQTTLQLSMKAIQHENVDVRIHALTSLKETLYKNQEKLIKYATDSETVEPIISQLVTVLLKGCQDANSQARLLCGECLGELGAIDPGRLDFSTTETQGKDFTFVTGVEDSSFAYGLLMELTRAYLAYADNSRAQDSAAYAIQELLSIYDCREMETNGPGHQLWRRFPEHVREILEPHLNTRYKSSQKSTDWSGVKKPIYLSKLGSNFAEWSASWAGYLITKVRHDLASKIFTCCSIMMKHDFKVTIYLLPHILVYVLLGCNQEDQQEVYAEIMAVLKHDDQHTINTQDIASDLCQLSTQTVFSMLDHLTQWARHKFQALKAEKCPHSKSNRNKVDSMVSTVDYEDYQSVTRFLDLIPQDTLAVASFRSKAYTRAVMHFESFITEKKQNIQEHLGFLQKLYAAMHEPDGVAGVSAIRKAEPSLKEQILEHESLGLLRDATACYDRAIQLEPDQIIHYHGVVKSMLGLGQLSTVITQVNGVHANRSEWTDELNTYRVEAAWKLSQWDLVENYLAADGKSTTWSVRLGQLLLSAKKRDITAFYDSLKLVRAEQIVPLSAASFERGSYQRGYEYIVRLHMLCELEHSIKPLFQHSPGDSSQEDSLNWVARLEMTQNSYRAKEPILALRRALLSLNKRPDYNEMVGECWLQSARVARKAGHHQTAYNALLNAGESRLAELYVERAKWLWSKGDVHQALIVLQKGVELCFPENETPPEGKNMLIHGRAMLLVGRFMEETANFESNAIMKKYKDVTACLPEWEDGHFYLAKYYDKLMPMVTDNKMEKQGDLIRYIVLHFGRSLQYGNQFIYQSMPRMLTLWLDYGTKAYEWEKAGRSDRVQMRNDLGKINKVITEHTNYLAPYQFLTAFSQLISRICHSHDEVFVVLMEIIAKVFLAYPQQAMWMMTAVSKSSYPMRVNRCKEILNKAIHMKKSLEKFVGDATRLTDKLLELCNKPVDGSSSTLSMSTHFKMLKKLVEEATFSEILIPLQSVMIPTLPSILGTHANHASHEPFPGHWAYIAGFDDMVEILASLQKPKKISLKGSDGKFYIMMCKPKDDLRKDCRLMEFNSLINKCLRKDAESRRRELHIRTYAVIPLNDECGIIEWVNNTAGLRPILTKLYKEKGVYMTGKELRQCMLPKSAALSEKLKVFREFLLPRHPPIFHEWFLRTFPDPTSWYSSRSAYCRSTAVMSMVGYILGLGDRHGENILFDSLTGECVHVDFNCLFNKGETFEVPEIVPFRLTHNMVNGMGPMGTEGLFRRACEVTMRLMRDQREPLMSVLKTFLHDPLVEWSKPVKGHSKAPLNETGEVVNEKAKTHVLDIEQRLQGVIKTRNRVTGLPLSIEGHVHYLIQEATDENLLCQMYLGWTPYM

Row | SMILES | Ki (ATR kinase) | Synergy with Cisplatin [1]
1 | CC(C)Oc1ccncc1NC(=O)c1c(N)nn2ccc(OCCN(C)C)nc12 [I-O-64, 2-amino-5-(2-(dimethylamino)ethoxy)-N-(4-isopropoxypyridin-3-yl)pyrazolo[1,5-a]pyrimidine-3-carboxamide] | 1000 to 5000 nM | + (Compounds with a Cisplatin sensitization value >0.2 μM but <5 μM are marked with “+.”)
2 | COc1cc(Cl)ncc1NC(=O)c1c(N)nn2ccc(OCCN(C)C)nc12 [I-O-65, 2-amino-N-(6-chloro-4-methoxypyridin-3-yl)-5-(2-(dimethylamino)ethoxy)pyrazolo[1,5-a]pyrimidine-3-carboxamide] | 10 to 1000 nM | + (Compounds with a Cisplatin sensitization value >0.2 μM but <5 μM are marked with “+.”)
3 | COc1ccncc1NC(=O)c1c(N)nn2ccc(N(C)CC3CCCN3C)nc12 (centres unmarked) [I-O-73, 2-amino-N-(4-methoxypyridin-3-yl)-5-(methyl((1-methylpyrrolidin-2-yl)methyl)amino)pyrazolo[1,5-a]pyrimidine-3-carboxamide] | 10 to 1000 nM | + (Compounds with a Cisplatin sensitization value >0.2 μM but <5 μM are marked with “+.”)
4 | COc1ccncc1NC(=O)c1c(N)nn2ccc(N3CCNC(C(F)(F)F)C3)nc12 (centres unmarked) [I-O-74, 2-amino-N-(4-methoxypyridin-3-yl)-5-(3-(trifluoromethyl)piperazin-1-yl)pyrazolo[1,5-a]pyrimidine-3-carboxamide] | < 10 nM | +++ (Compounds with a Cisplatin sensitization value of <0.02 μM are marked with “+++.”)
5 | COc1ccncc1NC(=O)c1c(N)nn2ccc(N3CCN4CCC[C@@H]4C3)nc12 [I-O-75, (R)-2-amino-5-(hexahydropyrrolo[1,2-a]pyrazin-2(1H)-yl)-N-(4-methoxypyridin-3-yl)pyrazolo[1,5-a]pyrimidine-3-carboxamide] | 10 to 1000 nM | ++ (Compounds with a Cisplatin sensitization value>0.02 μM but <0.2 μM are marked with “++.”)
6 | COc1ccncc1NC(=O)c1c(N)nn2ccc(N3CCNCC3)nc12 [I-O-76, 2-amino-N-(4-methoxypyridin-3-yl)-5-(piperazin-1-yl)pyrazolo[1,5-a]pyrimidine-3-carboxamide] | 10 to 1000 nM | ++ (Compounds with a Cisplatin sensitization value>0.02 μM but <0.2 μM are marked with “++.”)
7 | CC(C)Oc1ccncc1NC(=O)c1c(N)nn2ccc(N3CCN(C)CC3)nc12 [I-O-79, 2-amino-N-(4-isopropoxypyridin-3-yl)-5-(4-methylpiperazin-1-yl)pyrazolo[1,5-a]pyrimidine-3-carboxamide] | 1000 to 5000 nM | + (Compounds with a Cisplatin sensitization value >0.2 μM but <5 μM are marked with “+.”)
8 | COc1ccncc1NC(=O)c1c(N)nn2ccc(N3CCC(N(C)C)CC3)nc12 [I-O-80, 2-amino-5-(4-(dimethylamino)piperidin-1-yl)-N-(4-methoxypyridin-3-yl)pyrazolo[1,5-a]pyrimidine-3-carboxamide] | 10 to 1000 nM | + (Compounds with a Cisplatin sensitization value >0.2 μM but <5 μM are marked with “+.”)

Now from value to compound, other results behind:

Row | Ki (ATR kinase) | SMILES | Synergy with Cisplatin [1]
9 | 10 to 1000 nM | CNCc1ccn2nc(N)c(C(=O)Nc3cnccc3OC)c2n1 [I-O-66, 2-amino-N-(4-methoxypyridin-3-yl)-5-((methylamino)methyl)pyrazolo[1,5-a]pyrimidine-3-carboxamide] | ++ (Compounds with a Cisplatin sensitization value>0.02 μM but <0.2 μM are marked with “++.”)
10 | 10 to 1000 nM | CCCNc1ccn2nc(N)c(C(=O)Nc3cnccc3OC)c2n1 [I-O-67, 2-amino-N-(4-methoxypyridin-3-yl)-5-(propylamino)pyrazolo[1,5-a]pyrimidine-3-carboxamide] | ++ (Compounds with a Cisplatin sensitization value>0.02 μM but <0.2 μM are marked with “++.”)
11 | < 10 nM | COc1ccncc1NC(=O)c1c(N)nn2ccc(NCC3COC3)nc12 [I-O-68, 2-amino-N-(4-methoxypyridin-3-yl)-5-((oxetan-3-ylmethyl)amino)pyrazolo[1,5-a]pyrimidine-3-carboxamide] | ++ (Compounds with a Cisplatin sensitization value>0.02 μM but <0.2 μM are marked with “++.”)
12 | 10 to 1000 nM | COc1ccncc1NC(=O)c1c(N)nn2ccc(NCCN(C)C)nc12 [I-O-70, 2-amino-5-((2-(dimethylamino)ethyl)amino)-N-(4-methoxypyridin-3-yl)pyrazolo[1,5-a]pyrimidine-3-carboxamide] | + (Compounds with a Cisplatin sensitization value >0.2 μM but <5 μM are marked with “+.”)
13 | 10 to 1000 nM | COc1ccncc1NC(=O)c1c(N)nn2ccc(NCC3CCCN3C)nc12 (centres unmarked) [I-O-71] | + (Compounds with a Cisplatin sensitization value >0.2 μM but <5 μM are marked with “+.”)
14 | 10 to 1000 nM | COc1ccncc1NC(=O)c1c(N)nn2ccc(NCCN3CCCC3)nc12 [I-O-72, 2-amino-N-(4-methoxypyridin-3-yl)-5-((2-(pyrrolidin-1-yl)ethyl)amino)pyrazolo[1,5-a]pyrimidine-3-carboxamide] | + (Compounds with a Cisplatin sensitization value >0.2 μM but <5 μM are marked with “+.”)
15 | 10 to 1000 nM | COc1ccncc1NC(=O)c1c(N)nn2ccc(N3CCNC(C)C3)nc12 (centres unmarked) [I-O-77, 2-amino-N-(4-methoxypyridin-3-yl)-5-(3-methylpiperazin-1-yl)pyrazolo[1,5-a]pyrimidine-3-carboxamide] | ++ (Compounds with a Cisplatin sensitization value>0.02 μM but <0.2 μM are marked with “++.”)
16 | 10 to 1000 nM | COc1ccncc1NC(=O)c1c(N)nn2ccc(N3CCN(C)CC3)nc12 [I-O-78, 2-amino-N-(4-methoxypyridin-3-yl)-5-(4-methylpiperazin-1-yl)pyrazolo[1,5-a]pyrimidine-3-carboxamide] | + (Compounds with a Cisplatin sensitization value >0.2 μM but <5 μM are marked with “+.”)
